The target of one assay is T1, A17 RT (Human immunodeficiency virus type 1 group M subtype B, UniProt P04585, K690N/Y768C).
T1 construct: A17 RT was employed in the assay; made in house; host or cells: bacteria
In words: Reverse transcriptase assay, double (DBL) mutant. The assay is classed as biochemical, HIV. The method, then: (§1) The assay measures the incorporation of tritiated deoxyguanosine monophosphate by recombinant HIV reverse transcriptase (HIV RTR) (or other RT) into acid-precipitable cDNA at the Km values of dGTP and poly r(C)·oligo d(G)₁₂₋₁₈.
(§2) The assays were carried out in 55 mM Tris (pH 8.2)-30 mM KCl-30 mM MgCl₂-1 mM dithiothreitol-20 µg of rC:dG₁₂₋₁₈ (Pharmacia) per ml-8 µM [³H]dGTP (New England Nuclear)-0.01% Triton X-100-50 µM ethylene glycol-bis(β-amino-ethyl ether)-N,N,N',N'-tetraacetic acid (EGTA)-1 mg of bovine serum albumin per ml. After 60 min of incubation at 37°C, acid-precipitable material was collected onto glass fiber filters by using a semiautomatic cell harvester. Bacterial cell extracts containing RT were diluted to within the linear range of the assay, and activity was determined in the presence and absence of inhibitor. Purified HIV-1 RT heterodimer produced in E. coli also served as a control.
For the double (DBL) mutant assay, A17 RT was employed in the assay. A17 RT is resistant to various aminopyridones, as described in Nunberg, J.H. et al., J. Virol. 65, 4887 (1991).

The target in assay [1] is T2, recombinant HIV reverse transcriptase (HIV RTR) (Human immunodeficiency virus type 1 group M subtype B, UniProt P04585).
T2 construct: recombinant HIV reverse transcriptase (HIV RTR); made in house; host or cells: bacteria (E. coli is named only for the purified heterodimer control)
In words: Reverse transcriptase assay (incorporation of tritiated dGMP into acid-precipitable cDNA). The format is biochemical. The method, then: as §1, §2

Setting [2] is: recombinant HIV RT, 60 min at 37°C, read-out: IC50.

Where two headings read alike, the source gives them in different places.

Regarding `O=C1Nc2ccc(Cl)cc2C(C#Cc2ccccn2)(C2CC2)N1` (racemic) [Compound 11, 6-chloro-4-cyclopropyl-3,4-dihydro-4-((2-pyridyl)ethynyl)quinazolin-2(1H)-one], the IC50 against A17 RT came to 635 nM; in assay [1], 19 nM.

Regarding `COCC#CC1(C2CC2)NC(=O)Nc2ccc(Cl)cc21` (stereo not drawn) [Compound 1, 6-chloro-4-cyclopropyl-3,4-dihydro-4-(3-methoxy-1-propynyl)quinazolin-2(1H)-one], the IC50 is 7300 nM at A17 RT and 49 nM in assay [1].

Turning to `COCC#CC1(C2CC2)c2cc(Cl)ccc2NC(=O)N1C` (stereo not drawn) [Compound 2, 6-chloro-4-cyclopropyl-3,4-dihydro-3-methyl-4-(3-methoxy-1-propynyl)quinazolin-2(1H)-one], the IC50 at A17 RT amounted to 700 nM; in assay [1], 13 nM.

As to `CN1C(=O)Nc2ccc(Cl)cc2C1(C#CCOCC(F)(F)F)C1CC1` (stereo not drawn) [Compound 3, 6-chloro-4-cyclopropyl-3,4-dihydro-3-methyl-4-(3-(2,2,2-trifluoroethoxy)-1-propynyl)quinazolin-2(1H)-one], the results for the IC50 (against A17 RT; in assay [1]) were 2600 nM and 19 nM, respectively.

With `CN1C(=O)Nc2ccc(Cl)cc2C1(C#CCCF)C1CC1` (stereo not drawn) [Compound 4, 6-chloro-4-cyclopropyl-4-(4-fluoro-1-butynyl)-3,4-dihydro-3-methylquinazolin-2(1H)-one], the IC50 against A17 RT came to 230 nM; in assay [1] it was 7 nM.

Regarding `O=C1Nc2ccc(Cl)cc2C(C#CCCF)(C2CC2)N1` (stereo not drawn) [Compound 5, 6-chloro-4-cyclopropyl-4-(4-fluoro-1-butynyl)-3,4-dihydroquinazolin-2(1H)-one], the IC50 is 3500 nM on A17 RT and 31 nM in assay [1].

As for `CN1C(=O)Nc2ccc(Cl)cc2C1(C#CCCCl)C1CC1` (stereo not drawn) [Compound 6, 6-chloro-4-(4-chloro-1-butynyl)-4-cyclopropyl-3,4-dihydro-3-methylquinazolin-2(1H)-one], the figures for the IC50 (against A17 RT; in assay [1]) were 250 nM and 7 nM, respectively.

Turning to `CN1C(=O)Nc2ccc(Cl)cc2C1(C#CCN=[N+]=[N-])C1CC1` (stereo not drawn) [Compound 7, 4-(3-azido-1-propynyl)-6-chloro-4-cyclopropyl-3,4-dihydro-3-methylquinazolin-2(1H)-one], the IC50 against A17 RT was determined as 1750 nM; in assay [1] it was 20 nM.

Turning to `CN1C(=O)Nc2ccc(Cl)cc2C1(C#CCF)C1CC1` (stereo not drawn) [Compound 8, 6-chloro-4-cyclopropyl-4-(3-fluoro-1-propynyl)-3,4-dihydro-3-methylquinazolin-2(1H)-one], the IC50 came to 2900 nM at A17 RT and 24 nM in assay [1].

In the case of `CN(C)CC#CC1(C2CC2)c2cc(Cl)ccc2NC(=O)N1C` (stereo not drawn) [Compound 9, 6-chloro-4-cyclopropyl-3,4-dihydro-3-methyl-4-(3-(N,N-dimethylamino)-1-propynyl)quinazolin-2(1H)-one], the IC50 against A17 RT came to 273 nM; in assay [1], 54 nM.

Regarding `CN1C(=O)Nc2ccc(Cl)cc2C1(C#Cc1ccccn1)C1CC1` (stereo not drawn) [Compound 10, 6-chloro-4-cyclopropyl-3,4-dihydro-3-methyl-4-((2-pyridyl)ethynyl)quinazolin-2(1H)-one], the IC50 against A17 RT was 87 nM; in assay [1], 21 nM.

`O=C1Nc2ccc(Cl)cc2C(C#Cc2cccnc2)(C2CC2)N1` (stereo not drawn) [Compound 12, 6-chloro-4-cyclopropyl-3,4-dihydro-4-((3-pyridyl)ethynyl)quinazolin-2(1H)-one]: the IC50 on A17 RT is 310 nM; in assay [1], 84 nM.

On to `O=C1Nc2ccc(Cl)cc2C(C#Cc2ccncc2)(C2CC2)N1` (stereo not drawn) [Compound 13, 6-chloro-4-cyclopropyl-3,4-dihydro-4-((4-pyridyl)ethynyl)quinazolin-2(1H)-one], for which the IC50 stood at 3000 nM on A17 RT and 470 nM in assay [1].

Regarding `O=C1Nc2ccc(Cl)cc2C(C#Cc2cncnc2)(C2CC2)N1` (stereo not drawn) [Compound 14, 6-chloro-4-cyclopropyl-3,4-dihydro-4-((5-pyrimidinyl)ethynyl)quinazolin-2(1H)-one], the values for the IC50 (against A17 RT; in assay [1]) were 3000 nM and 1750 nM, respectively.

Consider `O=C1Nc2ccc(Cl)cc2C(C#Cc2ncccn2)(C2CC2)N1` (stereo not drawn) [Compound 15, 6-chloro-4-cyclopropyl-3,4-dihydro-4-((2-pyrimidinyl)ethynyl)quinazolin-2(1H)-one], for which the IC50 was found to be 8800 nM on A17 RT and 130 nM in assay [1] (setting [2]).

In the case of `O=C1Nc2ccc(Cl)cc2C(C#Cc2cnccn2)(C2CC2)N1` (stereo not drawn) [Compound 16, 6-chloro-4-cyclopropyl-3,4-dihydro-4-((2-pyrazinyl)ethynyl)quinazolin-2(1H)-one], the IC50 came out at 9000 nM against A17 RT and 270 nM in assay [1] (setting [2]).

For `CN1C(=O)Nc2ccc(Cl)cc2C1(C#CCOc1ccncc1)C1CC1` (stereo not drawn) [Compound 17, 6-chloro-4-cyclopropyl-3,4-dihydro-3-methyl-4-(3-(4-pyridyloxy)-1-propynyl)quinazolin-2(1H)-one], the IC50 turned out to be 3900 nM against A17 RT and 165 nM in assay [1].

For the molecule `CN1C(=O)Nc2ccc(Cl)cc2C1(C#CCOc1cc[n+]([O-])cc1)C1CC1` (stereo not drawn) [Compound 18, 6-chloro-4-cyclopropyl-3,4-dihydro-3-methyl-4-(3-(4-(N-oxopyridyl)oxy)-1-propynyl)quinazolin-2(1H)-one], the IC50 was 65000 nM on A17 RT (A17 RT (double mutant, resistant to aminopyridones), read-out: IC50DBL Mutant) and 9400 nM in assay [1] (setting [2]).

Regarding `CN1C(=O)Nc2ccc(Cl)cc2C1(C#CCN1CCOCC1)C1CC1` (stereo not drawn) [Compound 19, 6-chloro-4-cyclopropyl-3,4-dihydro-3-methyl-4-(3-(4-morpholinyl)-1-propynyl)quinazolin-2(1H)-one], the values for the IC50 (on A17 RT; in assay [1]) were 22000 nM and 1000 nM, respectively.

As for `CN1C(=O)Nc2ccc(Cl)cc2C1(C#CCn1ccnc1)C1CC1` (stereo not drawn) [Compound 20, 6-chloro-4-cyclopropyl-3,4-dihydro-4-(3-(1-imidazolyl)-1-propynyl)-3-methylquinazolin-2(1H)-one], the IC50 is 960 nM against A17 RT and 620 nM in assay [1].

As for `C=CC#CC1(C2CC2)c2cc(Cl)ccc2NC(=O)N1C` (stereo not drawn) [Compound 21, 4-(3-buten-1-ynyl)-6-chloro-4-cyclopropyl-3,4-dihydro-3-methylquinazolin-2(1H)-one], the results for the IC50 (at A17 RT; in assay [1]) were 248 nM and 4.3 nM, respectively.

On to `CN1C(=O)Nc2ccc(Cl)cc2C1(C#CCO)C1CC1` (stereo not drawn) [Compound 22, 6-Chloro-4-cyclopropyl-3,4-dihydro-4-(3-hydroxy-1-propynyl)-3-methylquinazolin-2(1H)-one], for which the IC50 in assay [1] was found to be 255 nM.

As to `O=C1Nc2ccc(Cl)cc2C(C#Cc2ccccc2)(C2CC2)N1` (stereo not drawn) [Compound 23, 6-chloro-4-cyclopropyl-3,4-dihydro-4-(phenylethynyl)quinazolin-2(1H)-one], the figures for the IC50 (at A17 RT; in assay [1]) were 135 nM and 6.1 nM, respectively.

Consider `CN1C(=O)Nc2ccc(Cl)cc2C1(C#CCOc1ccccn1)C1CC1` (stereo not drawn) [Compound 24, 6-Chloro-4-cyclopropyl-3,4-dihydro-3-methyl-4-(3-(2-pyridyloxy)-1-propynyl)quinazolin-2(1H)-one], for which the IC50 against A17 RT is 4900 nM; in assay [1], 125 nM.

Consider `O=C1Nc2ccc(Cl)cc2C(C#Cc2ccccc2[N+](=O)[O-])(C2CC2)N1` (stereo not drawn) [Compound 25, 6-Chloro-4-cyclopropyl-3,4-dihydro-4-(2-nitrophenylethynyl)quinazolin-2(1H)-one], for which the IC50 at A17 RT was 390 nM; in assay [1], 10.5 nM.

On to `O=C1Nc2ccc(Cl)cc2[C@@](C#Cc2ccccn2)(C2CC2)N1` [Compound 26, 6-chloro-4(S)-cyclopropyl-3,4-dihydro-4-((2-pyridyl)ethynyl)quinazolin-2(1H)-one], for which the IC50 came to 400 nM on A17 RT and 7 nM in assay [1].

Source of the values: patent publication EP0569083A1, “New quinazolines as inhibitors of HIV reverse transcriptase” (priority 1992, dated 1993).
